Measurements taken from patent US8030487B2, “2-amino—5-substituted pyrimidine inhibitors” (TargeGen, Inc., priority 2006, dated 2011).

Experiments:
human c-Src = biological target: T1, human c-Src (Homo sapiens, UniProt P12931); experiment: Src kinase inhibition (KinaseGlo residual ATP); type: biochemical; details: ATP 3 μM, 90 min room temperature
T1 construct: purchased Panvera/Invitrogen
Experimental: (§1) The ability of compounds of the present invention to inhibit the activity of various groups of kinases was tested. Kinases that were tested are described below. All kinase reactions were conducted in 96-well plates with a final reaction volume of 50 μl.
Recombinant human c-Src or Yes, or Fyn, or Lck (28 ng/well, Panvera/Invitrogen, Madison Wis.), ATP (3 μM), a tyrosine kinase substrate (PTK2, 250 μM, Promega Corp., Madison Wis.), and test agents (at concentrations ranging from about 1 nM/l to about 100 μM/l), in the presence of Src kinase reaction buffer (Upstate USA, Lake Placid N.Y.). After reacting for about 90 minutes at room temperature, residual ATP was determined using a luciferase-based assay (KinaseGlo, Promega Corp.) as a measure of kinase activity. Data from four wells were then averaged and used to determine IC50 values for the test compounds (Prism software package, GraphPad Software, San Diego Calif.).

VEGFR2 = biological target: T2, VEGFR2 (Homo sapiens, UniProt P35968); experiment: VEGFR2 kinase inhibition (residual ATP luminescence); type: biochemical; details: 1.5 uM ATP, 60 min 37° C.
T2 construct: purchased Cell Signaling/ProQinase
Experimental: as §1
EGFR and VEGFR2 kinase assays were similarly performed. EGFR (76 ng/well, Panvera/Invitrogen) was combined with 12.5 mg/ml poly(glu4tyr) (Sigma) and 2.5 uM ATP. VEGFR2 (14.1 U/well, Cell Signaling/ProQinase) was used with 0.3 mg/ml poly(glu4tyr) and 1.5 uM ATP. Both were incubated for 60 minutes at 37° C., and the residual ATP was measured via luminescence, per the procedure described above.

T2 sequence (P35968 20-1356, species assumed): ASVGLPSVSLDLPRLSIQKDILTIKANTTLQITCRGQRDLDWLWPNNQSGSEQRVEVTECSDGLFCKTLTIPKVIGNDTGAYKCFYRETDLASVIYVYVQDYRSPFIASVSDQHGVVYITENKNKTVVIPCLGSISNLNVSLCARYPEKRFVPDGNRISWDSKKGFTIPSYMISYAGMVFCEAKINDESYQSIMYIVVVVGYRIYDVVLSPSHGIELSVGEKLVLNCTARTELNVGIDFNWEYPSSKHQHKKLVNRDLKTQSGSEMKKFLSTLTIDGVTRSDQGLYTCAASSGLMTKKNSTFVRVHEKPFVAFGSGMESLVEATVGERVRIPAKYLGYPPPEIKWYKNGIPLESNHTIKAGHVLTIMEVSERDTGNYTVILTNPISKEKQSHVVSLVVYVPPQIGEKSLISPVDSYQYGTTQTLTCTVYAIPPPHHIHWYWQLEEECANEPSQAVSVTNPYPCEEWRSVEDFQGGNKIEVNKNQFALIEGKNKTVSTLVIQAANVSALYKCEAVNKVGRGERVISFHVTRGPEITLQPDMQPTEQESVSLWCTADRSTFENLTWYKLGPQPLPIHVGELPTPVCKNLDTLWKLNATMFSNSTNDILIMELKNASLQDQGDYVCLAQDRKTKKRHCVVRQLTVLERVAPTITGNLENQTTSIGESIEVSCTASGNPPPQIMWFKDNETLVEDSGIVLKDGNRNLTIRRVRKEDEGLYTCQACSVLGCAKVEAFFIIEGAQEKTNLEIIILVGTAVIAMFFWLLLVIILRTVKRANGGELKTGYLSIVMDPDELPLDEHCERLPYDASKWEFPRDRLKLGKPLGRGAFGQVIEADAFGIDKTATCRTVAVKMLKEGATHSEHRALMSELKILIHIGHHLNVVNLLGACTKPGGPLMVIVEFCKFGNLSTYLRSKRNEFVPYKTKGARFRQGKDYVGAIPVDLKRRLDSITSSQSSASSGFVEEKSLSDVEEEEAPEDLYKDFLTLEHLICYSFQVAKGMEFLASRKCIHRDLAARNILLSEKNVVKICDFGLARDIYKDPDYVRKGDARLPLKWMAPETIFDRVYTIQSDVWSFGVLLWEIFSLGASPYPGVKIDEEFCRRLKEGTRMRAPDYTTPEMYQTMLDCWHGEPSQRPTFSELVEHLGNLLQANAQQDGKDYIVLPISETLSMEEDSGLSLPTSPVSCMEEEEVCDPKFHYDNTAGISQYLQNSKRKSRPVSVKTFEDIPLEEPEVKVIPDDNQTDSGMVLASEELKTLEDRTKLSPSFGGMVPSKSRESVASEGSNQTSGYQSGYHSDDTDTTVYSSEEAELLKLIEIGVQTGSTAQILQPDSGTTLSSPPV
T1 sequence (P12931 whole entry): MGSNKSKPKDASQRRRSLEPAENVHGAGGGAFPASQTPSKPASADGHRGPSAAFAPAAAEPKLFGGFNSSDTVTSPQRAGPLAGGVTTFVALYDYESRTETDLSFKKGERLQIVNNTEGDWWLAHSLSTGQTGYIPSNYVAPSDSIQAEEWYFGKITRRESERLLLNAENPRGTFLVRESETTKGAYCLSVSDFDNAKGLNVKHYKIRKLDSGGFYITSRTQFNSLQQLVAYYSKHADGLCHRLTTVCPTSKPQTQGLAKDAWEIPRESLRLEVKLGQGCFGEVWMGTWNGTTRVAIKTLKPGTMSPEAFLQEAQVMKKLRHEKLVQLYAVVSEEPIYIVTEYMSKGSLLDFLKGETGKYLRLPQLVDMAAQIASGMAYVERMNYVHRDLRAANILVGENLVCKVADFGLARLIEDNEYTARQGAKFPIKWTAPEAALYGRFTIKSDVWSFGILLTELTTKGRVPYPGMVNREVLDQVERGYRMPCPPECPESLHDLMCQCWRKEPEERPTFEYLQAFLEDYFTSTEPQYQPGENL

| IC50 (human c-Src) [nM] | IC50 (VEGFR2) [nM] | SMILES |
| --- | --- | --- |
| 3.3 | 3.2 | Cc1ccc(NC(=O)c2cccc(C(F)(F)F)c2)cc1C(=O)Nc1cnc(Nc2ccc(OCCN3CCCC3)cc2)nc1 [drawing 170] |
|  | 2.9 | O=C(Nc1ccc(Cl)c(C(=O)Nc2cnc(Nc3ccc(S(=O)(=O)CCCN4CCCC4)cc3)nc2)c1)c1cccc(C(F)(F)F)c1 [drawing 161] |
| > 10000 |  | Cc1ccc(NC(=O)C(C)(C)C)cc1C(=O)Nc1cnc(Nc2ccc(OCCN3CCCC3)cc2)nc1 |
|  | 164 | Cc1cccc(NC(=O)c2cccc(C(=O)Nc3cnc(Nc4ccc(S(=O)(=O)CCCN5CCCC5)cc4)nc3)c2)c1 |
| 1.4 | 2.2 | O=C(NCCN1CCCC1)c1ccc(Nc2ncc(NC(=O)c3cc(NC(=O)c4cccc(C(F)(F)F)c4)ccc3Cl)cn2)cc1 |
| 407 |  | O=C(Nc1cnc(Nc2ccc(CCCN3CCCC3)cc2)nc1)c1cc(Nc2ccc3ccccc3n2)ccc1Cl |
| 1.2 | 0.8 | O=C(Nc1ccc(Cl)c(C(=O)Nc2cnc(Nc3ccc(OCCN4CCCC4)cc3)nc2)c1)c1cccc(C(F)(F)F)c1 [drawing 171] |
| 16.6 |  | Cc1ccc(NC(=O)c2ccccc2)cc1C(=O)Nc1cnc(Nc2cccc(OCCN3CCCC3)c2)nc1 |
| 755 |  | Cc1ccc(NC(=O)c2cccc(C(F)(F)F)c2)cc1Nc1cnc(Nc2cccc(CCCN3CCCC3)c2)nc1 |
| 169 |  | O=C(Nc1cnc(Nc2cccc(OCCN3CCCC3)c2)nc1)c1cc(Nc2ccccn2)ccc1Cl |
| 11.6 |  | Cc1cccc(C(=O)Nc2ccc(Cl)c(C(=O)Nc3cnc(Nc4ccc(S(=O)(=O)CCCN5CCCC5)cc4)nc3)c2)c1 |
| 1.8 | 73.1 | Cc1ccc(NC(=O)Nc2cccc(C(F)(F)F)c2)cc1C(=O)Nc1cnc(Nc2cccc(OCCN3CCCC3)c2)nc1 |
| 4.1 | 21 | Cc1ccc(NC(=O)c2cccc(C(F)(F)F)c2)cc1C(=O)Nc1cnc(Nc2ccc(C(=O)NCCN3CCCC3)nc2)nc1 |
| ~10000 |  | Cc1ccc(S(N)(=O)=O)cc1Nc1cnc(Nc2ccc(S(=O)(=O)NCCN3CCCC3)cc2)nc1 |
| 1.7 |  | Cc1ccc(NC(=O)c2cccc(C(F)(F)F)c2)cc1C(=O)Nc1cnc(Nc2ccc(C(=O)NCCN3CCCC3)cc2)nc1 |
| 4 | 2.1 | O=C(Nc1ccc(Cl)c(C(=O)Nc2cnc(Nc3cccc(S(=O)(=O)NCCN4CCCC4)c3)nc2)c1)c1cccc(C(F)(F)F)c1 |
| 3.8 | 14.2 | Cc1ccc(NC(=O)c2cccc(C(F)(F)F)c2)cc1C(=O)Nc1cnc(Nc2ccc(S(=O)(=O)CCCN3CCCC3)cc2)nc1 |
| 2.6 |  | O=C(Nc1ccc(Cl)c(C(=O)Nc2cnc(Nc3ccc(CCCN4CCCC4)cc3)nc2)c1)c1cccc(C(F)(F)F)c1 [drawing 180] |
| 3 | 40.7 | O=C(Nc1ccc(Cl)c(C(=O)Nc2cnc(Nc3ccc(OCCN4CCCC4)cc3)nc2)c1)c1cccc(F)c1 |
| 4.5 | 168 | Cc1ccc(NC(=O)Nc2ccccc2)cc1C(=O)Nc1cnc(Nc2ccc(OCCN3CCCC3)cc2)nc1 |
| 3.9 | 13.8 | Cc1ccc(NC(=O)c2cccc(C(F)(F)F)c2)cc1C(=O)Nc1cnc(Nc2cccc(OCCN3CCCC3)c2)nc1 [drawing 163] |
| 67.4 |  | O=C(Nc1cnc(Nc2ccc(S(=O)(=O)CCCN3CCCC3)cc2)nc1)c1cccc(NC(=O)c2cccc(C(F)(F)F)c2)c1 |
| 2.8 |  | O=C(Nc1ccc(Cl)c(C(=O)Nc2cnc(Nc3ccc(CCCN4CCCC4)cc3)nc2)c1)c1cccc(C(F)(F)F)c1 [drawing 172] |
| 2.2 | 7.1 | O=C(Nc1cccc(C(F)(F)F)c1)Nc1ccc(Cl)c(C(=O)Nc2cnc(Nc3ccc(OCCN4CCCC4)cc3)nc2)c1 [drawing 202] |
| 1300 |  | Cc1ccc(S(=O)(=O)NCc2ccccc2)cc1Nc1cnc(Nc2ccc(S(=O)(=O)NCCN3CCCC3)cc2)nc1 |
| 23.3 | 3350 | Cc1ccc(Nc2nccc3ccccc23)cc1C(=O)Nc1cnc(Nc2cccc(OCCN3CCCC3)c2)nc1 [drawing 186] |

More lines, now with the values behind:

| SMILES | IC50 (human c-Src) [nM] | IC50 (VEGFR2) [nM] |
| --- | --- | --- |
| CCOC(=O)c1cccc(Nc2ncc(NC(=O)c3cc(NC(=O)c4cccc(C(F)(F)F)c4)ccc3Cl)cn2)c1 | 13.4 |  |
| O=C(Nc1ccc(Cl)c(C(=O)Nc2cnc(Nc3ccc(C(=O)NCCN4CCCC4)nc3)nc2)c1)c1cccc(C(F)(F)F)c1 | 5 |  |
| N#Cc1ccc(C(=O)Nc2ccc(Cl)c(C(=O)Nc3cnc(Nc4ccc(S(=O)(=O)C5CCNCC5)cc4)nc3)c2)cc1 | 32 |  |
| COc1ccc(Nc2ncc(NC(=O)c3cc(NC(=O)c4cccc(C(F)(F)F)c4)ccc3Cl)cn2)cc1 | 12 | 23 |
| Cc1ccc(NC(=O)c2c(F)cc(F)cc2F)cc1C(=O)Nc1cnc(Nc2cccc(CCCN3CCCC3)c2)nc1 | 102 |  |
| O=C(Nc1ccc(Cl)c(C(=O)Nc2cnc(Nc3ccc(S(=O)(=O)C4CCNCC4)cc3)nc2)c1)c1cc(C(F)(F)F)ccc1F | 4.2 | 22.3 |
| O=C(Nc1cnc(Nc2ccc(OCCN3CCCC3)cc2)nc1)c1cc(NC(=O)C2CCCCC2)ccc1Cl | 19.4 |  |
| O=C(Nc1ccc(Cl)c(C(=O)Nc2cnc(Nc3ccc(C(=O)N4CCN(CCO)CC4)nc3)nc2)c1)c1cccc(C(F)(F)F)c1 | 1.9 | 3.1 |
| O=C(Nc1ccc(Cl)c(NC(=O)c2cnc(Nc3cccnc3)nc2)c1)c1cccc(C(F)(F)F)c1 | 86 | 178 |
| O=C(Nc1ccc(Cl)c(C(=O)Nc2cnc(Nc3ccc(OC(=O)c4ccccc4)cc3)nc2)c1)c1cccc(C(F)(F)F)c1 | 647 | 361 |
| O=C(Nc1ccc(Cl)c(C(=O)Nc2cnc(Nc3ccc(S(=O)(=O)C4CCNCC4)cc3)nc2)c1)c1cccs1 | 38.2 |  |
| Cc1ccc(NC(=O)Nc2cccc(C(F)(F)F)c2)cc1C(=O)Nc1cnc(Nc2cccnc2)nc1 | 7.9 | 27.8 |
| O=C(Nc1ccc(Cl)c(C(=O)Nc2cnc(NCCN3CCCC3)nc2)c1)c1cccc(C(F)(F)F)c1 | > 10000 |  |
| CN1CCN(C(=O)c2ccc(Nc3ncc(NC(=O)c4cc(NC(=O)c5cccc(C(F)(F)F)c5)ccc4Cl)cn3)cc2)CC1 | 1.7 | 2.3 |
| COc1ccc(C(=O)Nc2ccc(Cl)c(C(=O)Nc3cnc(Nc4ccc(S(=O)(=O)C5CCNCC5)cc4)nc3)c2)cc1 | 17.5 |  |
| O=C(Nc1ccc(Cl)c(C(=O)Nc2cnc(Nc3ccccc3)nc2)c1)c1cccc(C(F)(F)F)c1 [drawing 181] | 4.5 | 9.6 |
| O=C(Nc1cccc(C(F)(F)F)c1)Nc1ccc(Cl)c(C(=O)Nc2cnc(Nc3cccnc3)nc2)c1 | 14.2 | 20.1 |
| O=C(Nc1ccc(C(=O)Nc2cnc(Nc3cccc(OCCN4CCCC4)c3)nc2)c(Cl)c1)c1cccc(C(F)(F)F)c1 | 65.7 |  |

| SMILES | IC50 (human c-Src) [nM] | IC50 (VEGFR2) [nM] |
| --- | --- | --- |
| O=C(Nc1ccc(Cl)c(NC(=O)c2cnc(Nc3ccc(OCCN4CCCC4)cc3)nc2)c1)c1cccc(C(F)(F)F)c1 | 50 | 43 |
| Nc1ncc(NC(=O)c2cc(NC(=O)c3cccc(C(F)(F)F)c3)ccc2Cl)cn1 | 72 |  |
| O=C(Nc1cnc(Nc2cccc(OCCN3CCCC3)c2)nc1)c1cc(NC(=O)C(F)(F)F)ccc1Cl [drawing 168] | 63.4 |  |
| O=C(Nc1ccc(Cl)c(C(=O)Nc2cnc(Nc3cccnc3)nc2)c1)c1cccc(C(F)(F)F)c1 [drawing 211] | 4.7 | 5.4 |
| O=C(Nc1cnc(Nc2cccnc2)nc1)c1cc(Nc2ccc3ccccc3n2)ccc1Cl | 454 |  |
| O=C(Nc1ccc(Cl)c(C(=O)Nc2cnc(Nc3cccc(OCCN4CCCC4)c3)nc2)c1)c1cccc(C(F)(F)F)c1 [drawing 162] | 2.1 | 2.7 |
| Cc1ccc(NC(=O)Cc2cccc(C(F)(F)F)c2)cc1C(=O)Nc1cnc(Nc2cccnc2)nc1 | 56.9 |  |
| CN1CCN(C(=O)c2ccc(Nc3ncc(NC(=O)c4cc(NC(=O)c5cccnc5)ccc4Cl)cn3)cc2)CC1 | 93.2 |  |
| O=C(Nc1ccc(Cl)c(C(=O)Nc2cnc(Nc3ccc(S(=O)(=O)C4CCNCC4)cc3)nc2)c1)c1cccc(C(F)(F)F)c1 [drawing 169] | 1.8 | 4.5 |
| O=C(Nc1ccc(Cl)c(C(=O)Nc2cnc(Nc3ccc(S(=O)(=O)C4CCNCC4)cc3)nc2)c1)c1cccc(Cl)c1 | 2.5 | 11.6 |
| O=C(Nc1ccc(Cl)c(C(=O)Nc2cnc(Nc3ccc(O)cc3)nc2)c1)c1cccc(C(F)(F)F)c1 | 19 | 15 |
| CC(=O)Nc1ccc(Cl)c(C(=O)Nc2cnc(Nc3ccc(S(=O)(=O)C4CCNCC4)cc3)nc2)c1 | 2600 |  |
| O=C(Nc1ccc(Cl)c(CNc2cnc(Nc3cccnc3)nc2)c1)c1cccc(C(F)(F)F)c1 | 10.2 | 2.1 |
| O=C(Nc1ccc(Cl)c(NC(=O)c2cnc(Nc3cccc(OCCN4CCCC4)c3)nc2)c1)c1cccc(C(F)(F)F)c1 | 67 | 149 |
| Cc1ccc(NC(=O)C(F)(F)F)cc1C(=O)Nc1cnc(Nc2cccc(OCCN3CCCC3)c2)nc1 [drawing 173] | 50.6 |  |
| O=C(Nc1ccc(Cl)c(C(=O)Nc2cnc(Nc3ccc(OCCN4CCCC4)cc3)nc2)c1)c1ccc(C(F)(F)F)cc1 | 3.3 | 12 |
| Cc1cc(C(=O)Nc2ccc(Cl)c(C(=O)Nc3cnc(Nc4ccc(OCCN5CCCC5)cc4)nc3)c2)no1 | 77.5 |  |
